Measured values reported in ChEMBL document CHEMBL3885861, “Open TG-GATES”.

Species: Rattus norvegicus
Assay: Open TG-GATES - Regimen: Single
Type: toxicity, organism-based, Sprague-Dawley
Set-up: regimen Single, gender Male, age 6 weeks
Details: in vivo, po, 15 mg/kg, route gavage, dose level Low; for APTT / Bas / Eos / Fbg / Hb / Ht / Lym / MCH / MCHC / MCV / Mono / Neu / PT / Plat / RBC / Ret / WBC: tissue Blood; for KIDNEY_L / KIDNEY_R / KIDNEY_TOTAL: tissue Kidney; for LIVER: tissue Liver; for A/G / ALP / ALT / AST / BUN / CRE / Ca / Cl / DBIL / GLC / IP / K / LDH / Na / PL / RALB / TBIL / TC / TG / TP / gamma-GTP: tissue Plasma

Q: How did the TERMINAL_BW (3 h) turn out when `CC(C)C(=O)Nc1ccc([N+](=O)[O-])c(C(F)(F)F)c1` [FLUTAMIDE] was run?
A: 209 g

Q: And the APTT (3 h)?
A: 19 s

Q: And the Bas (3 h)?
A: 0%

Q: What about the Eos (3 h) of the same molecule?
A: 0.8%

Q: What about the Fbg (3 h) of the same molecule?
A: 219.6 mg/dL

Q: What about the Hb (3 h) of the same molecule?
A: 13.5 g/dL

Q: What about the Ht (3 h) of the same molecule?
A: 39.7%

Q: What about the Lym (3 h) of the same molecule?
A: 80%

Q: What about the MCH (3 h) of the same molecule?
A: 22 pg

Q: What about the MCHC (3 h) of the same molecule?
A: 33.9%

Q: And the MCV (3 h)?
A: 64.6 fL

Q: What about the Mono (3 h) of the same molecule?
A: 3%

Q: What about the Neu (3 h) of the same molecule?
A: 14.6%

Q: What about the PT (3 h) of the same molecule?
A: 12.6 s

Q: What about the Plat (3 h) of the same molecule?
A: 128.6 x10_4/uL

Q: And the RBC (3 h)?
A: 615.6 x10_4/ul

Q: And the Ret (3 h)?
A: 7.5%

Q: And the WBC (3 h)?
A: 110 x10_2/uL

Q: What about the KIDNEY_L (3 h) of the same molecule?
A: 0.9 g

Q: And the KIDNEY_R (3 h)?
A: 0.9 g

Q: And the KIDNEY_TOTAL (3 h)?
A: 1.8 g

Q: What about the LIVER (3 h) of the same molecule?
A: 9.3 g

Q: What about the A/G (3 h) of the same molecule?
A: 1.7

Q: What about the ALP (3 h) of the same molecule?
A: 1106 IU/L

Q: And the ALT (3 h)?
A: 39 IU/L

Q: And the AST (3 h)?
A: 69.6 IU/L

Q: And the BUN (3 h)?
A: 12 mg/dL

Q: And the CRE (3 h)?
A: 0.4 mg/dL

Q: What about the Ca (3 h) of the same molecule?
A: 11 mg/dL

Q: What about the Cl (3 h) of the same molecule?
A: 103 meq/L

Q: What about the DBIL (3 h) of the same molecule?
A: 0.2 mg/dL

Q: And the GLC (3 h)?
A: 212.6 mg/dL

Q: What about the IP (3 h) of the same molecule?
A: 9.8 mg/dL

Q: And the K (3 h)?
A: 3.7 meq/L

Q: And the LDH (3 h)?
A: 187.2 IU/L

Q: What about the Na (3 h) of the same molecule?
A: 140.4 meq/L

Q: And the PL (3 h)?
A: 177.2 mg/dL

Q: And the RALB (3 h)?
A: 3.5 g/dL

Q: And the TBIL (3 h)?
A: 0.3 mg/dL

Q: And the TC (3 h)?
A: 87.8 mg/dL

Q: What about the TG (3 h) of the same molecule?
A: 127 mg/dL

Q: And the TP (3 h)?
A: 5.6 g/dL

Q: What about the gamma-GTP (3 h) of the same molecule?
A: 1.2 IU/L

Q: And the TERMINAL_BW (6 h)?
A: 207.2 g

Q: And the APTT (6 h)?
A: 19.3 s

Q: What about the Bas (6 h) of the same molecule?
A: 0%

Q: What about the Eos (6 h) of the same molecule?
A: 0.8%

Q: What about the Fbg (6 h) of the same molecule?
A: 228.6 mg/dL

Q: What about the Hb (6 h) of the same molecule?
A: 13.3 g/dL

Q: And the Ht (6 h)?
A: 39.1%

Q: And the Lym (6 h)?
A: 78.2%

Q: And the MCH (6 h)?
A: 21.8 pg

Q: And the MCHC (6 h)?
A: 34%

Q: And the MCV (6 h)?
A: 63.9 fL

Q: And the Mono (6 h)?
A: 3.6%

Q: And the Neu (6 h)?
A: 16.8%

Q: What about the PT (6 h) of the same molecule?
A: 12.7 s

Q: And the Plat (6 h)?
A: 126.9 x10_4/uL

Q: What about the RBC (6 h) of the same molecule?
A: 611.2 x10_4/ul

Q: What about the Ret (6 h) of the same molecule?
A: 7.5%

Q: And the WBC (6 h)?
A: 103.4 x10_2/uL

Q: And the KIDNEY_L (6 h)?
A: 0.9 g

Q: And the KIDNEY_R (6 h)?
A: 0.9 g

Q: And the KIDNEY_TOTAL (6 h)?
A: 1.8 g

Q: And the LIVER (6 h)?
A: 9.3 g

Q: What about the A/G (6 h) of the same molecule?
A: 1.7

Q: And the ALP (6 h)?
A: 1000.8 IU/L

Q: And the ALT (6 h)?
A: 37 IU/L

Q: What about the AST (6 h) of the same molecule?
A: 69.6 IU/L

Q: And the BUN (6 h)?
A: 8.8 mg/dL

Q: And the CRE (6 h)?
A: 0.3 mg/dL

Q: And the Ca (6 h)?
A: 10.6 mg/dL

Q: And the Cl (6 h)?
A: 103.2 meq/L

Q: And the DBIL (6 h)?
A: 0.1 mg/dL

Q: What about the GLC (6 h) of the same molecule?
A: 194.8 mg/dL

Q: And the IP (6 h)?
A: 9.7 mg/dL

Q: And the K (6 h)?
A: 4 meq/L

Q: What about the LDH (6 h) of the same molecule?
A: 154 IU/L

Q: And the Na (6 h)?
A: 140 meq/L

Q: And the PL (6 h)?
A: 159.2 mg/dL

Q: What about the RALB (6 h) of the same molecule?
A: 3.5 g/dL

Q: What about the TBIL (6 h) of the same molecule?
A: 0.2 mg/dL

Q: And the TC (6 h)?
A: 88.2 mg/dL

Q: And the TG (6 h)?
A: 53.8 mg/dL

Q: And the TP (6 h)?
A: 5.6 g/dL

Q: And the gamma-GTP (6 h)?
A: 1.2 IU/L

Q: What about the TERMINAL_BW (9 h) of the same molecule?
A: 204.9 g

Q: What about the APTT (9 h) of the same molecule?
A: 18 s

Q: What about the Bas (9 h) of the same molecule?
A: 0%

Q: What about the Eos (9 h) of the same molecule?
A: 1%

Q: And the Fbg (9 h)?
A: 213.6 mg/dL

Q: And the Hb (9 h)?
A: 13.6 g/dL

Q: And the Ht (9 h)?
A: 39.8%

Q: What about the Lym (9 h) of the same molecule?
A: 77.2%

Q: And the MCH (9 h)?
A: 21.8 pg

Q: What about the MCHC (9 h) of the same molecule?
A: 34.2%

Q: What about the MCV (9 h) of the same molecule?
A: 63.6 fL

Q: What about the Mono (9 h) of the same molecule?
A: 3.6%

Q: And the Neu (9 h)?
A: 17.6%

Q: And the PT (9 h)?
A: 13 s

Q: And the Plat (9 h)?
A: 121.6 x10_4/uL

Q: What about the RBC (9 h) of the same molecule?
A: 624.8 x10_4/ul

Q: And the Ret (9 h)?
A: 7.7%

Q: What about the WBC (9 h) of the same molecule?
A: 91.2 x10_2/uL

Q: What about the KIDNEY_L (9 h) of the same molecule?
A: 0.9 g

Q: What about the KIDNEY_R (9 h) of the same molecule?
A: 0.9 g

Q: And the KIDNEY_TOTAL (9 h)?
A: 1.9 g

Q: What about the LIVER (9 h) of the same molecule?
A: 8.4 g

Q: What about the A/G (9 h) of the same molecule?
A: 1.6

Q: And the ALP (9 h)?
A: 967.8 IU/L

Q: And the ALT (9 h)?
A: 31.8 IU/L

Q: What about the AST (9 h) of the same molecule?
A: 62.2 IU/L

Q: What about the BUN (9 h) of the same molecule?
A: 10.6 mg/dL

Q: What about the CRE (9 h) of the same molecule?
A: 0.3 mg/dL

Q: And the Ca (9 h)?
A: 10.3 mg/dL

Q: What about the Cl (9 h) of the same molecule?
A: 103.8 meq/L

Q: And the DBIL (9 h)?
A: 0.082 mg/dL

Q: And the GLC (9 h)?
A: 207.8 mg/dL

Q: What about the IP (9 h) of the same molecule?
A: 9.8 mg/dL

Q: And the K (9 h)?
A: 3.7 meq/L

Q: What about the LDH (9 h) of the same molecule?
A: 182.2 IU/L

Q: What about the Na (9 h) of the same molecule?
A: 141.8 meq/L

Q: And the PL (9 h)?
A: 131.4 mg/dL

Q: And the RALB (9 h)?
A: 3.4 g/dL

Q: What about the TBIL (9 h) of the same molecule?
A: 0.1 mg/dL

Q: What about the TC (9 h) of the same molecule?
A: 69.8 mg/dL

Q: What about the TG (9 h) of the same molecule?
A: 45.4 mg/dL

Q: And the TP (9 h)?
A: 5.6 g/dL

Q: What about the gamma-GTP (9 h) of the same molecule?
A: 0.8 IU/L

Q: What about the TERMINAL_BW (24 h) of the same molecule?
A: 218.9 g

Q: What about the APTT (24 h) of the same molecule?
A: 17.6 s

Q: What about the Bas (24 h) of the same molecule?
A: 0%

Q: And the Eos (24 h)?
A: 1%

Q: And the Fbg (24 h)?
A: 212 mg/dL

Q: And the Hb (24 h)?
A: 13.6 g/dL

Q: And the Ht (24 h)?
A: 40.3%

Q: And the Lym (24 h)?
A: 78.6%

Q: And the MCH (24 h)?
A: 22 pg

Q: What about the MCHC (24 h) of the same molecule?
A: 33.8%

Q: And the MCV (24 h)?
A: 64.9 fL

Q: And the Mono (24 h)?
A: 3.8%

Q: What about the Neu (24 h) of the same molecule?
A: 16%

Q: And the PT (24 h)?
A: 12.5 s

Q: And the Plat (24 h)?
A: 125.4 x10_4/uL

Q: And the RBC (24 h)?
A: 621.2 x10_4/ul

Q: What about the Ret (24 h) of the same molecule?
A: 6.6%

Q: And the WBC (24 h)?
A: 79.6 x10_2/uL

Q: And the KIDNEY_L (24 h)?
A: 0.9 g

Q: What about the KIDNEY_R (24 h) of the same molecule?
A: 1 g

Q: What about the KIDNEY_TOTAL (24 h) of the same molecule?
A: 1.9 g

Q: What about the LIVER (24 h) of the same molecule?
A: 10.7 g

Q: What about the A/G (24 h) of the same molecule?
A: 1.7

Q: And the ALP (24 h)?
A: 981 IU/L

Q: What about the ALT (24 h) of the same molecule?
A: 39 IU/L

Q: And the AST (24 h)?
A: 72.2 IU/L

Q: What about the BUN (24 h) of the same molecule?
A: 13.8 mg/dL

Q: What about the CRE (24 h) of the same molecule?
A: 0.4 mg/dL

Q: What about the Ca (24 h) of the same molecule?
A: 10.4 mg/dL

Q: And the Cl (24 h)?
A: 104.6 meq/L

Q: What about the DBIL (24 h) of the same molecule?
A: 0.094 mg/dL

Q: And the GLC (24 h)?
A: 205.6 mg/dL

Q: And the IP (24 h)?
A: 7.1 mg/dL

Q: And the K (24 h)?
A: 3.8 meq/L

Q: And the LDH (24 h)?
A: 155.2 IU/L

Q: And the Na (24 h)?
A: 141.8 meq/L

Q: What about the PL (24 h) of the same molecule?
A: 146 mg/dL

Q: What about the RALB (24 h) of the same molecule?
A: 3.5 g/dL

Q: And the TBIL (24 h)?
A: 0.2 mg/dL

Q: What about the TC (24 h) of the same molecule?
A: 81.2 mg/dL

Q: What about the TG (24 h) of the same molecule?
A: 83.4 mg/dL

Q: And the TP (24 h)?
A: 5.5 g/dL

Q: What about the gamma-GTP (24 h) of the same molecule?
A: 1 IU/L
